Results from patent publication US20230002324A1, “NAPHTHOQUINONE DERIVATIVES FOR TREATMENT OF OXIDATIVE STRESS DISORDERS” (PTC THERAPEUTICS, INC., priority 2019, published 2023).
pEC50: −log10 of the molar value.

The compounds below were run on Q7 cells (ST HDH Q7/7; immortalized mouse striatal cells) (assay: Q7 Cystine Deprivation cell survival (rescue) assay). Conditions: 18 h, read-out: Q7 Cystine Deprivation Survival EC50.
Type: cell-based
Excerpt: In neuronal cells excess extracellular glutamate inhibits the cystine/glutamate antiporter leading to intracellular cysteine depletion, GSH depletion, reactive oxygen species (ROS) production and cell death, a phenomenon termed oxidative glutamate toxicity, oxytosis, or ferroptosis. […] Q7 cells (ST HDH Q7/7; immortalized mouse striatal cells) challenged with cystine-free media or the selective, irreversible GPX4 inhibitor, methyl (1S,3R)-2-(2-chloroacetyl)-1-(4-(methoxycarbonyl)phenyl)-2,3,4,9-tetrahydro-1H-pyrido[3,4-b]indole-3-carboxylate (hereafter referred to as RSL3), recapitulate this phenotype, as do normal human fibroblasts (NHF) challenged with RSL3. An initial screen was performed to identify compounds effective in rescuing Q7 and/or NHF cells from death resulting from cystine deprivation or RSL3 challenge. This method is further described in Yonezawa et al., J. Neurochem 67, 566-573 (1996), Li et al., J Neurosci., 23, 5816-5826 (2003), Yang and Stockwell, Chem Biol., 15: 234-45 (2008), and Yang et al., Cell 156, 317-331 (2014). See also Hinman A, Holst C R, Latham J C, et al. Vitamin E hydroquinone is an endogenous regulator of ferroptosis via redox control of 15-lipoxygenase. PLoS One. 2018; 13(8):e0201369. Published 2018 Aug. 15. doi:10.1371/journal.pone.0201369; and Kahn-Kirby A H, Amagata A, Maeder C I, et al. Targeting ferroptosis: A novel therapeutic strategy for the treatment of mitochondrial disease-related epilepsy. PLoS One. 2019; 14(3):e0214250. Published 2019 Mar. 28. doi:10.1371/journal.pone.0214250.
DMEM (Catalog no. 11995-040), DMEM without Cystine (Catalog no. 21013-024), DMEM without Glucose (Catalog A1443001), PBS (Phosphate buffered saline), Penicillin-streptomycin mix, L-Glutamine, Glucose, Phenol Red, and Pyruvate were purchased from ThermoFisher Scientific (Gibco). Fetal Bovine Serum was obtained from Mediatech, Inc., or Sigma Aldrich. Mouse striatum derived ST HDH Q7/7 (Q7) and normal human skin fibroblast (NHF, product number GM21811) cells were obtained from the Coriell Institute. Methionine and Vitamin K2 were purchased from Sigma Aldrich. RSL3 was synthesized as previously described (see e.g. US Patent Publication US2010/0081654). Cell Titer Glo 2.0 was purchased from Promega. Q7 cell culture medium (Q7 growth medium) was made by combining 50 mL Fetal Bovine Serum, 100 U/mL penicillin, and 100 microgram/mL streptomycin; DMEM was added to make the volume up to 500 mL. Assay medium for the Cystine Deprivation assay was prepared by combining 50 mL Fetal Bovine Serum, 100 U/mL penicillin, 100 microgram/mL streptomycin, 4 mM L-Glutamine, 1 mM Pyruvate and 30 mg/L Methionine; DMEM without Cystine was added to make the volume up to 500 mL. NHF cell culture medium (NHF growth medium) was made by combining 50 mL Fetal Bovine Serum, 100 U/mL penicillin, 100 microgram/mL streptomycin, 2.8 mL 20% Glucose solution (final concentration 6 mM), L-glutamine (final concentration 2 mM), phenol red (final concentration 15 mg/L); DMEM without Glucose was added to make the volume up to 500 mL. Assay medium for the RSL3 challenge assay was identical to Growth medium. While not in use during the course of the experiments, these solutions were stored at 4° C. The cells were grown in 150-cm^2 tissue culture-treated flasks. Every third or fourth day, the cells were sub-cultured by trypsinization and re-seeded at a cell density of 600,000 (Q7) or 300,000 (NHF) cells per flask.
Q7 or NHF cells were cultured routinely as described herein. For 384-well cell survival assays, cells were seeded in clear bottom, black wall 384-well tissue culture-treated polystyrene plates by re-suspending a cell suspension at a density of 50,000 cells/mL in growth medium, then dispensing 60 microliters of cell suspension per well using either an electronic multichannel pipette or a Multidrop™ Combi Reagent Dispenser (ThermoFisher Scientific), corresponding to 3,000 cells/well. […]

Compound | pEC50
COc1cc2c(cc1OC)C(=O)C(Cc1ccc(C(F)(F)F)cn1)=C(C)C2=O [Example 41, 6,7-dimethoxy-2-methyl-3-((5-(trifluoromethyl)pyridin-2-yl)methyl)naphthalene-1,4-dione] | > 7.30

Same assay, conditions: Q7 cells, cystine-free medium, 18 h, Cell Titer Glo, 50% relative viability vs Vitamin K2 (1 micromolar), read-out: Q7 Cystine Deprivation Survival EC50

Compound | pEC50
CC1=C(Cc2cc(C(F)(F)F)c(F)cn2)C(=O)c2ccccc2C1=O [Example 2, 2-((5-fluoro-4-(trifluoromethyl)pyridin-2-yl)methyl)-3-methylnaphthalene-1,4-dione] | > 7.30
CC1=C(Cc2cc(C)c(F)cn2)C(=O)c2ccccc2C1=O [Example 3, 2-((5-fluoro-4-methylpyridin-2-yl)methyl)-3-methylnaphthalene-1,4-dione] | > 7.30
CC1=C(Cc2cc(C)c(C(F)(F)F)cn2)C(=O)c2ccccc2C1=O [Example 4, 2-methyl-3-((4-methyl-5-(trifluoromethyl)pyridin-2-yl)methyl)naphthalene-1,4-dione] | > 7.30
CC1=C(Cc2ccc(C)nn2)C(=O)c2ccccc2C1=O [Example 5, 2-methyl-3-((6-methylpyridazin-3-yl)methyl)naphthalene-1,4-dione] | > 7.30
CC1=C(Cc2ccc(C)cn2)C(=O)c2ccccc2C1=O [Example 7, 2-methyl-3-((5-methylpyridin-2-yl)methyl)naphthalene-1,4-dione] | > 7.30
CC1=C(Cc2cccc(C(F)(F)F)n2)C(=O)c2ccccc2C1=O [Example 8, 2-methyl-3-((6-(trifluoromethyl)pyridin-2-yl)methyl)naphthalene-1,4-dione] | > 7.30
CC1=C(Cc2ccc(C(F)(F)F)nn2)C(=O)c2ccccc2C1=O [Example 10, 2-methyl-3-((6-(trifluoromethyl)pyridazin-3-yl)methyl)naphthalene-1,4-dione] | > 7.30
CC1=C(Cc2cc(C(F)(F)F)cnn2)C(=O)c2ccccc2C1=O [Example 11, 2-methyl-3-((5-(trifluoromethyl)pyridazin-3-yl)methyl)naphthalene-1,4-dione] | > 7.30
CC1=C(Cc2cccnn2)C(=O)c2ccccc2C1=O [Example 12, 2-methyl-3-(pyridazin-3-ylmethyl)naphthalene-1,4-dione] | > 7.30
CC1=C(Cc2cc(C)c(C)nn2)C(=O)c2ccccc2C1=O [Example 13, 2-((5,6-dimethylpyridazin-3-yl)methyl)-3-methylnaphthalene-1,4-dione] | > 7.30
CC1=C(Cc2ccc(C(N)=O)nn2)C(=O)c2ccccc2C1=O [Example 14, 6-((3-methyl-1,4-dioxo-1,4-dihydronaphthalen-2-yl)methyl)pyridazine-3-carboxamide] | > 7.30
CC1=C(Cc2cc(C)cnn2)C(=O)c2ccccc2C1=O [Example 15, 2-methyl-3-((5-methylpyridazin-3-yl)methyl)naphthalene-1,4-dione] | > 7.30
CCOc1cnnc(CC2=C(C)C(=O)c3ccccc3C2=O)c1 [Example 16, 2-((5-ethoxypyridazin-3-yl)methyl)-3-methylnaphthalene-1,4-dione] | > 7.30
COc1nnc(CC2=C(C)C(=O)c3ccccc3C2=O)cc1C(F)(F)F [Example 17, 2-((6-methoxy-5-(trifluoromethyl)pyridazin-3-yl)methyl)-3-methylnaphthalene-1,4-dione] | > 7.30
COc1nnc(CC2=C(C)C(=O)c3ccccc3C2=O)cc1C [Example 18, 2-((6-methoxy-5-methylpyridazin-3-yl)methyl)-3-methylnaphthalene-1,4-dione] | < 6.00
CC1=C(Cc2ncc(C(F)(F)F)cn2)C(=O)c2ccccc2C1=O [Example 19, 2-methyl-3-((5-(trifluoromethyl)pyrimidin-2-yl)methyl)naphthalene-1,4-dione] | > 7.30

Compound | pEC50
O=C1C=C(Cc2ccc(C(F)(F)F)cn2)C(=O)c2ccccc21 [Example 25, 2-((5-(trifluoromethyl)pyridin-2-yl)methyl)naphthalene-1,4-dione] | 6.00 to 6.60
CC(C)CCC1=C(Cc2ccc(C(F)(F)F)cn2)C(=O)c2ccccc2C1=O [Example 34, 2-isopentyl-3-((5-(trifluoromethyl)pyridin-2-yl)methyl)naphthalene-1,4-dione] | 6.60 to 7.30
COc1ccc2c(c1)C(=O)C(Cc1ccc(C(F)(F)F)cn1)=C(C)C2=O [Example 36, 6-methoxy-2-methyl-3-((5-(trifluoromethyl)pyridin-2-yl)methyl)naphthalene-1,4-dione] | > 7.30
COc1ccc2c(c1)C(=O)C(C)=C(Cc1ccc(C(F)(F)F)cn1)C2=O [Example 37, 6-methoxy-3-methyl-2-((5-(trifluoromethyl)pyridin-2-yl)methyl)naphthalene-1,4-dione] | > 7.30
Cc1ccc(CC2=C(C3CC3)C(=O)c3ccccc3C2=O)nc1 [Example 38, 2-cyclopropyl-3-((5-methylpyridin-2-yl)methyl)naphthalene-1,4-dione] | > 7.30
COc1cccc2c1C(=O)C(C)=C(Cc1ccc(C(F)(F)F)cn1)C2=O [Example 40, 5-methoxy-3-methyl-2-((5-(trifluoromethyl)pyridin-2-yl)methyl)naphthalene-1,4-dione] | > 7.30
CC1=C(Cc2ccc(C(F)(F)F)cn2)C(=O)c2cc(F)ccc2C1=O [Example 45, 6-fluoro-2-methyl-3-((5-(trifluoromethyl)pyridin-2-yl)methyl)naphthalene-1,4-dione] | > 7.30
CC1=C(Cc2ccc(C(F)(F)F)cn2)C(=O)c2cccc(F)c2C1=O [Example 46, 5-fluoro-3-methyl-2-((5-(trifluoromethyl)pyridin-2-yl)methyl)naphthalene-1,4-dione] | > 7.30
CCCC1=C(Cc2ccc(Cl)cn2)C(=O)c2ccccc2C1=O [Example 106, 2-((5-chloropyridin-2-yl)methyl)-3-propylnaphthalene-1,4-dione] | > 7.30
CCCC1=C(Cc2ccc(C(F)(F)F)nn2)C(=O)c2ccccc2C1=O [Example 107, 2-propyl-3-((6-(trifluoromethyl)pyridazin-3-yl)methyl)naphthalene-1,4-dione] | > 7.30
CCCC1=C(Cc2ncc(C(F)(F)F)cc2F)C(=O)c2ccccc2C1=O [Example 108, 2-((3-fluoro-5-(trifluoromethyl)pyridin-2-yl)methyl)-3-propylnaphthalene-1,4-dione] | 6.60 to 7.30
CCCC1=C(Cc2cc(C#N)c(F)cn2)C(=O)c2ccccc2C1=O [Example 110, 2-((1,4-dioxo-3-propyl-1,4-dihydronaphthalen-2-yl)methyl)-5-fluoroisonicotinonitrile] | > 7.30
CCCC1=C(Cc2ncc(F)cc2C)C(=O)c2ccccc2C1=O [Example 111, 2-((5-fluoro-3-methylpyridin-2-yl)methyl)-3-propylnaphthalene-1,4-dione] | 6.60 to 7.30
CCCC1=C(Cc2ccc(F)c(C#N)n2)C(=O)c2ccccc2C1=O [Example 112, 6-((1,4-dioxo-3-propyl-1,4-dihydronaphthalen-2-yl)methyl)-3-fluoropicolinonitrile] | > 7.30
CCCC1=C(Cc2ccc(C)cn2)C(=O)c2ccccc2C1=O [Example 115, 2-((5-methylpyridin-2-yl)methyl)-3-propylnaphthalene-1,4-dione] | > 7.30
CCCC1=C(Cc2ncc(F)cc2F)C(=O)c2ccccc2C1=O [Example 117, 2-((3,5-difluoropyridin-2-yl)methyl)-3-propylnaphthalene-1,4-dione] | > 7.30
